The record followed here is patent US20250099491A1, “PREVENTION OR TREATMENT OF CARDIOVASCULAR DISEASES WITH HIGH PENETRATION PRODRUGS OF ASPIRIN AND OTHER NSAIDS” (Techfields Inc., priority 2022, published 2025).

Data set [1] concerns rats with acute ischemia induced by Middle Cerebral Artery Occlusion (MCAO). As to the kind of experiment: Example 14: acute ischemia induced by middle cerebral artery occlusion (MCAO) in rats. It counts as in vivo, rat. Particulars: for mortalities: deaths of animals in group; for infarct volume: Day 14 after MCAO, TTC staining, mean±SEM.
The subject of data set [2] is myocardial infarction in minipigs. Nature of the data set: Example 20: myocardial infarction efficacy study in minipigs (circumflex coronary artery thrombosis). Type of data set: in vivo, minipig. Particulars: twice a day; for infarct volume (myocardial): 28 days after MCA thrombosis. How it is done:
Total 24 male minipigs were used for this study. […] The minipigs were already quarantined and acclimated. Before animal being transferred from holding colony, a physical examination was performed and the acceptability of the animals for the study was evaluated by veterinary. […] [table] […] Under anesthesia, thoracotomy was carried out and the circumflex coronary artery of the heart was exposed. The circumflex coronary artery thrombosis was induced by photochemical reaction. […] Photoirradiation was continued for a 30 min. […] After cutting the femoral artery, thoracotomy was carried out and the heart was removed. […] TTC regent for 5 min. After staining with TTC reagent, the photograph of the heart 5 blocks was taken. All blocks were immersed in 10% formalin neutral buffer solution. The 2nd block appeared large necrotic area was cut sections (thickness: 7-8 μm). Slice was stained with H & E reagent. […] The infarct lesions were defined as a necrotic portion of TTC stained blocks. […] The histopathological alteration (necrosis, inflammation, granulation, etc.) of myocardial infarction was examined using H & E stained slides.

Data set [3] has as its system rats, minipigs, rabbits, guinea pigs, Ames, CHO-WBL Cells. Nature of the data set: Nonclinical pharmacology and toxicology battery. Type of data set: in vivo. The settings on record: battery of GLP dermal toxicity, genotoxicity, safety pharmacology, irritation and sensitization studies. The protocol:
A battery of pharmacology and toxicology studies were conducted to support early clinical trials, including a GLP acute dermal maximum tolerated dose study in rats, a GLP acute dermal maximum tolerated dose study in minipigs, a 28-day GLP repeated dermal dose toxicity and toxicokinetics study in rats with 14-day recovery, a 28-day GLP repeated dermal dose toxicity and toxicokinetics study in minipigs with 14-day recovery, a GLP bacterial reverse mutation assay (Ames), a GLP in vitro chromosome aberration assay in CHO-WBL Cells, a GLP in vivo bone marrow micronucleus assay in rats, a behavioral effects in rats using the functional observational battery, a rat respiratory safety pharmacology study, a cardiovascular telemetry study in the unrestrained conscious minipigs, a skin irritation study in rabbits, and a sensitization test in guinea pigs.

In data set [4] the test system is middle cerebral artery (MCA) thrombosis model of monkeys. Nature of the data set: Example 19: middle cerebral artery (MCA) thrombosis model of monkeys. The settings on record: for infarct volume: Day 28 after MCA thrombosis.
Procedure: Aspirin was administered orally by gavage using a nasal catheter with a disposal syringe. The catheter was inserted into the stomach through the mouth. The treatment was once per day of MCA thrombosis (day 0), twice per day for 27 days.
The monkeys that had been fastened for at least 12 h were anesthetized with intramuscular administration of ketamine hydrochloride (20 mg/kg), and placed on an operation-bed. Anesthesia was continued with 1.0% isoflurane in O2 gas until 30 min. The inhalation anesthesia was performed with anesthesia machines (SN23402, Hallowell engineering and manufacturing corporation, USA) and respirators (SN23402, Hallowell engineering and manufacturing corporation, USA), and placed on an operation-bed. During anesthesia, body temperature of the animals (rectal temperature) was controlled between 37.0±0.5° C. by heating mattresses (XMTA-7000, Delixi Electric., Ltd.).
Under anesthesia, the left eye was enucleated using a bipolar coagulation device (Valleylab Force 1C, USA). A craniotomy was then performed supralaterally to the left side of the optic nerve. The next day animals were anesthetized with ketamine hydrochloride (20 mg/kg) and the dura and subarachnoid membrane were opened. MCA thrombosis was induced by photochemical reaction. The proximal part of the main MCA trunk. was irradiated with green light wave length 532 nm achieved by use of a xenon lamp (GL532T3-100FC, Shanghai Laser& Optics Century Col., Ltd.). The irradiation was directed by a 3-mm diameteroptic fiber mounted on a micromanipulator. Irradiation was started and rose bengal 20 mg/kg was injected intravenously. Photoirradiation was continued for a 30 min. The dura was then covered with a moist gelatin sponge.
Neurological deficits (see Table 3) were assessed 1, 3, 5, 7, 14 and 28 days after the onset of MCA thrombosis (day 0) in a blind manner. The neurological deficits was scored on consciousness, sensory system, motor system and skeletal muscle coordination, and the total neurological deficit score was calculated by summing the scores of consciousness, sensory system, motor system and skeletal muscle coordination.
The survival monkeys were deeply anesthetized with pentobarbital sodium (35 mg/kg, i.v.) 28 days after the onset of MCA thrombosis. After cutting the atriums of heart, 200 mL of heparinized physiological saline (10 U/mL) was allowed to perfuse the brain via the common carotid arteries, and followed by perfusion of 200 mL of 10% formalin neutral buffer solution. The whole brain was removed, and then was put in pathology sample preservation packs containing 10% formalin neutral buffer solution. For each brain sample, the coronal sections (thickness: 7-8 μm) per site were prepared at 10 sites at 4-mm intervals. Slices per site were each stained with H & E reagent.
Measurement of cerebral infarct lesions was carried out in a blind manner. The infarct lesions in the ischemic side are defined as a necrotic portion compared with that in the contralateral side. The infarcted area of left cerebral hemisphere (A) in the cross-sections was traced and measured using a computerized image analysis system (image J).
When the infarct size of 2 serial section was made into D and D′, the infarcted volume using the thickness (4 mm) of a section is measured in the following formula:
Total infarcted volume is calculated by summing the infarcted volume of the 10 serial sections.
Setting [5] is: high dose 30 mg/kg/time transdermal.
Setting [6] is: low dose 15 mg/kg/time transdermal.
Setting [7] is: high dose 30 mg/kg/time transdermal, twice a day.
[8] abbreviates: low dose 15 mg/kg/time transdermal, twice a day.

Turning to `CCN(CC)CCOC(=O)c1ccccc1OC(C)=O.Cl` [Compound-1], the mortalities in data set [1] (high dose 60 mg/kg topical bid) and in data set [1] (middle dose 30 mg/kg topical bid) was 0 of 25 in each case. The infarct volume in data set [1] (low dose 15 mg/kg topical bid 14 days) is recorded as 32.07%±2.061; in data set [1] (middle dose 30 mg/kg topical bid 14 days), 27.11%±1.658; in data set [4] (setting [7]), 988 mm^3; in data set [4] (setting [8]), 945 mm^3. In addition, the “neuroprotective effect on brain ischemic injury” value in data set [1] (low, middle and high dose groups compared to vehicle group) is recorded as “good neuroprotective effect”. Moreover, the neurological deficit scores entry in data set [1] (low, middle and high dose groups vs vehicle group) is recorded as “show differences significantly”. Also, the body weight entry in data set [1] (low, middle and high dose groups, Day 5-14, vs vehicle group by t-test) was “increased”. The “degeneration of myocardium and myocardial necrosis (histopathology)” value in data set [2] (setting [5]) and in data set [2] (setting [6]) was “slight” in each case. Besides, the “infarct volume (myocardial)” value in data set [2] (setting [5]) worked out at 138 mm^3; in data set [2] (setting [6]), 177 mm^3. Further, the “nonclinical safety and tolerability” value in data set [3] is “safe and generally well tolerated”. The Mortality rate is given as 0/7 in data set [4] (setting [7]) and 0/5 in data set [4] (setting [8]). In data set [4] (setting [7]), the “gemistocytic astrocytes in the penumbra area” value was “many gemistocytic astrocytes”. Further, the “liquefaction in the infarct area (histopathology)” value was “slight” in data set [4] (setting [7]) and “moderate” in data set [4] (setting [8]). Moreover, the neurologic deficits result in data set [4] (low dose (15 mg/kg) and high dose (30 mg/kg) groups, transdermal twice a day) is recorded as “dose-dependently improved”. The “delayed neuronal death in the distant area” value in data set [4] (transdermal treatment groups) is on record as “slightly”.
